We go through 3 molecules from US20050069907A1, “Methods for using double-mutant RNA polymerases with reduced discrimination between non-canonical and canonical nucleoside triphosphates” (priority 2002, published 2005).

One series has as its system RNA as a template. Conditions: cited from earlier work.
A further series relates to Bgl II-cut pPK5. Briefly: Run-off transcription with 2′-OMe- or 2′-azido-NTPs on Bgl II-cut pPK5. It counts as biochemical. The protocol:
(§1) RNAPs were prepared as described (Brieba, L G, and Sousa, R. Biochemistry, 39: 919-923, 2000). Transcription reactions were carried out for 30 min. at room temperature in 40 mM Tris-Cl, pH 8.0, 6 mM MgCl2, 10 mM NaCl, 2 mM spermidine, with templates at 10^−7 M and RNAPs at 2×10^−7 M. All NTPs were used at 0.5 mM, and transcripts were labeled by inclusion of 1% v/v 800 Ci/mM […] in the reaction. Modified NTPs were from Trilink Biotechnologies. Reactions were stopped by addition of an equal volume of 90% formamide, 50 mM EDTA, 0.01% xylene cyanol, resolved by electrophoresis in 20% acrylamide, 1% bis-acrylamide, 1×TBE gels, and visualized on a Molecular Dynamics Phosphorimager.
The ability of the wild-type, Y639F and Y639F/H784A mutants to utilize 2′-OMe-UTP and 2′-OMe-CTP, and 2′-azido-UTP and 2′-azido-CTP in RNA synthesis was tested. On a Bgl II-cut pPK5 (Mentesanas, P. E., et al., “Characterization of Bacteriophage T7 RNA Polymerase Elongation Complexes,” J. Mol. Biol. 302:1049-1062, 2000) template in which CTP and UTP are first incorporated at +14 and +15, respectively, the wild-type enzyme can synthesize 34 nucleotide (nt) run-off transcripts in reactions in which UTP is replaced with 2′-OMe-UTP (FIG. 2a, lane 2) or in reactions in which CTP is replaced with 2′-OMe-CTP (FIG. 2a, lane 3). Relative to the reaction with 4 NTPs (FIG. 2a, lane 1), yields of run-off transcripts are reduced 6-fold and 21-fold in the 2′-OMe-UTP and 2′-OMe-CTP reactions, respectively. When both UTP and CTP are replaced with the corresponding 2′-OMe-NTPs, run-off transcription with the wild-type enzyme is undetectable (FIG. 2a, lane 4). Terminated transcripts are seen in these reactions at positions where 2′-OMe-UMP or 2′-OMe-CMP are incorporated (FIG. 2a, lanes 2-4). The Y639F mutation enhances utilization of the 2′-OMe-NTPs: relative to reactions with 4 NTPs (FIG. 2a, lane 5) runoff transcription with Y639F is reduced, respectively: 2-fold, 8-fold, and 55-fold in reactions with 2′-OMe-UTP, 2′-OMe-CTP, or both (FIG. 2a, lanes 6-8). With the Y639F/H784A double mutant the reduction in run-off transcript synthesis is <15% in reactions with 2′-OMe-UTP (FIG. 2a, lane 10), and only 3-fold and 6-fold in reactions with, respectively, 2′-OMe-CTP or both 2′-OMe-UTP and 2′-OMe-CTP (FIG. 2a, lanes 11, 12).
Identical experiments were carried out with 2′-azido-UTP or 2′-azido-CTP replacing UTP or CTP, respectively (FIG. 2b). With the wild-type enzyme, run-off transcription was reduced 15- and 50-fold in reactions with 2′-azido-UTP or 2′-azido-CTP, respectively (FIG. 2b; lanes 2, 3), and was undetectable in reactions with both 2′-azido-UTP and 2′-azido-CTP (FIG. 2b; lane 4). With Y639F, use of 2′-azido-UTP or 2′-azido-CTP reduced run-off transcription by 70% (FIG. 2b; lanes 6, 7) compared to reactions with 4 NTPs (FIG. 2b; lane 5), while use of both 2′-azido-UTP and 2′-azido-CTP reduced runoff transcription by 11-fold (FIG. 2b, lane 8). With Y639F/H784A use of a single azido-modified NTP reduced run-off transcription by only 40% (FIG. 2b; lanes 10, 11), while use of two 2′-azido-NTPs reduced it by 3-fold (FIG. 2b; lane 12).

Another series has as its system HindIII-cut pT75. In words: Run-off transcription with 2′-OMe- or 2′-azido-NTPs on HindIII-cut pT75. Type of series: biochemical. The method, then: as §1
With the pPK5 template, UMP and CMP are not incorporated into the first 9 nt of RNA. Incorporation of non-canonical NMPs during synthesis of the first 9 nt of RNA is expected to cause greater reductions in run-off transcript synthesis because the RNA is readily released from the transcription complex during this initial phase of transcription. Therefore, if incorporation of a non-canonical NMP is slow, the RNA will usually dissociate before the NMP is incorporated. […] To see whether NMPs with bulky 2′-substituents could be incorporated during the initial phase of transcription a Hind-III linearized pT75 (Tabor, S. and Richardson, C. C., “A bacteriophage T7 RNA polymerase/promoter system for controlled exclusive expression of specific genes,” Proc. Natl. Acad. Sci. USA 82:1074-1078, 1985) was used. On this template, UMP is first incorporated at +14 while CMP is incorporated at +6 and +7. In reactions with 2′-OMe-UTP run-off transcript synthesis is reduced 11-fold, 5-fold, and <2-fold with the wild-type, and the Y639F, and Y639F/H784A mutants, respectively (FIG. 2c; lanes 2, 6, 10). However, in reactions with 2′-OMe-CTP run-off transcription is undetectable with the wild-type or Y639F enzymes (FIG. 2c; lanes 3, 4, 7, 8), and is reduced ˜700-fold with Y639F/H784A (FIG. 2c; lanes 11, 12).
Run-off transcript yields in reactions with HindIII-cut pT75 and 2′-azido-UTP are reduced 18-, 8.5-, and <2-fold with wild-type and Y639F and Y639F/H784 mutants, respectively (FIG. 2d; lanes 2, 6, 10), relative to reactions with 4 NTPs (FIG. 2d; lanes 1, 5, 9). In reactions with 2′-azido-CTP, or both 2′-azido-CTP and 2′-azido-UTP, run-off transcription is undetectable with the wild-type enzyme (FIG. 2d; lanes 3, 4), is reduced 65-fold with Y639F (FIG. 2d; lanes 7, 8), but is reduced only 7-fold with Y639F/H784A (FIG. 2d; lanes 11, 12).

A further series has as its system T7 Control Template. Briefly: Incorporation of Cy5-UTP or Cy5-dCTP into transcripts (A650/A260). Type of series: biochemical. Particulars: FluoroLink Cy5-UTP or Cy5-dCTP in addition to UTP or CTP. The method, then:
In separate experiments to evaluate the ability of the Y639F/H784A double mutant versus the Y639F single mutant of T7 RNAP to incorporate nucleoside triphosphates with substituents at other positions than the 2′-position of the sugar, in vitro transcription reactions are carried out with each mutant enzyme using a T7 Control Template from an AmpliScribe™ T7 High Yield Transcription Kit (EPICENTRE) and either FluoroLink™ Cy5-UTP or FluoroLink™ Cy5-dCTP (both from Amersham Biosciences) in the reaction mixture in addition to the corresponding canonical nucleotide, UTP or CTP. Following transcription, the product is precipitated with ammonium acetate and the relative amount of Cy5 dye in the transcripts are determined based on the A650/A260 absorption ratios.

For series [1] the following is noted: even in Mn^2+ buffer; cited from earlier work.

With “E. coli DNA-directed DNA polymerase I: E. coli DNA polymerase I”, in the series with RNA as a template, the “Increase in dNTP Km” value is on record as ~100 fold.
Turning to “Y639F/H784A: Y639F/H784A double mutant of T7 RNAP”, the “Reduction of run-off transcript yield relative to 4 NTPs” value in the series with Bgl II-cut pPK5 (2′-OMe-CTP replacing CTP) turned out to be 3 fold; with Bgl II-cut pPK5 (both 2′-OMe-UTP and 2′-OMe-CTP), 6 fold. In the series on Bgl II-cut pPK5 (2′-OMe-UTP replacing UTP), the “Reduction in run-off transcript synthesis” value was < 15%. The “Reduction of run-off transcription” value is given as 3 fold in the series on Bgl II-cut pPK5 (both 2′-azido-UTP and 2′-azido-CTP); 40% with Bgl II-cut pPK5 (single azido-modified NTP (2′-azido-UTP or 2′-azido-CTP)); ~700 fold in the series with HindIII-cut pT75 (2′-OMe-CTP); 7 fold in the series on HindIII-cut pT75 (2′-azido-CTP, or both 2′-azido-CTP and 2′-azido-UTP). Also, in the series with HindIII-cut pT75 (2′-OMe-UTP), the “Reduction of run-off transcript synthesis” value is listed as < 2 fold. Besides, in the series with HindIII-cut pT75 (2′-azido-UTP), the “Reduction of run-off transcript yields relative to 4 NTPs” value is on record as < 2 fold. Also, in the series with T7 Control Template, the “A650/A260 absorption ratio of transcription products compared to Y639F single mutant” value was “significantly higher”.

B1: T7 DNAP: T7 DNA polymerase (protein, UniProt P00581 1-704, looked up)
DNA-directed DNA polymerase: MIVSDIEANALLESVTKFHCGVIYDYSTAEYVSYRPSDFGAYLDALEAEVARGGLIVFHNGHKYDVPALTKLAKLQLNREFHLPRENCIDTLVLSRLIHSNLKDTDMGLLRSGKLPGKRFGSHALEAWGYRLGEMKGEYKDDFKRMLEEQGEEYVDGMEWWNFNEEMMDYNVQDVVVTKALLEKLLSDKHYFPPEIDFTDVGYTTFWSESLEAVDIEHRAAWLLAKQERNGFPFDTKAIEELYVELAARRSELLRKLTETFGSWYQPKGGTEMFCHPRTGKPLPKYPRIKTPKVGGIFKKPKNKAQREGREPCELDTREYVAGAPYTPVEHVVFNPSSRDHIQKKLQEAGWVPTKYTDKGAPVVDDEVLEGVRVDDPEKQAAIDLIKEYLMIQKRIGQSAEGDKAWLRYVAEDGKIHGSVNPNGAVTGRATHAFPNLAQIPGVRSPYGEQCRAAFGAEHHLDGITGKPWVQAGIDASGLELRCLAHFMARFDNGEYAHEILNGDIHTKNQIAAELPTRDNAKTFIYGFLYGAGDEKIGQIVGAGKERGKELKKKFLENTPAIAALRESIQQTLVESSQWVAGEQQVKWKRRWIKGLDGRKVHVRSPHAALNTLLQSAGALICKLWIIKTEEMLVEKGLKHGWDGDFAYMAWVHDEIQVGCRTEEIAQVVIETAQEAMRWVGDHWNFRCLLDTEGKMGPNWAICH
As to B1, the “Selectivity for dNTPs over rNTPs” value in series [1] is “at least 2,000 fold”.
